Tested on: rat TTR gene
Test: In vivo editing of TTR in rat liver after LNP delivery (NGS, % editing)
Design: species or system rat (Sprague-Dawley)
Conditions: for Mean % editing in rat liver: NGS, dose 0.03 mpk, LNP with G000534 sgRNA and Cas9 mRNA 1:2 w/w, 3% C13 Ether (Compound 53: 3% PEG2K-DMG), N=5 (Compound 33: N=4)
How it was run: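 Four-component LNPs (ionizable amine lipid, DSPC, cholesterol, PEG lipid) carried Cas9 mRNA and a chemically modified sgRNA against rat TTR, made by impinging jet mixing at an N:P near 6. They were injected into the lateral tail vein of female Sprague-Dawley rats. Liver genomic DNA collected at 6 or 7 days was amplicon-sequenced on Illumina MiSeq to calculate percent indels.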

[1] = Experiment 12, 0.04 mpk, LNP with PEG2K-DMG
[2] = Experiment 14, 0.03 mpk, LNP with C13 Ether
[3] = Experiment 7, 0.1 mpk, LNP with PEG2K-DMG
[4] = Experiment 10, 0.1 mpk, LNP with PEG2K-DMG
[5] = Experiment 11, 0.1 mpk, LNP with PEG2K-DMG
[6] = Experiment 13, 0.03 mpk, LNP with PEG2K-DMG
[7] = Experiment 1, 0.1 mpk, LNP with PEG2K-DMG
[8] = Experiment 2, 0.1 mpk, LNP with PEG2K-DMG
[9] = Experiment 3, 0.1 mpk, LNP with PEG2K-DMG
[10] = Table 6, 0.03 mpk, PEG lipid C13 Ether
[11] = Table 6, 0.03 mpk, PEG lipid C14 Ether
[12] = Table 6, 0.03 mpk, PEG lipid PEG2K-DMG

`CCCCCCCCC(CCCCCCCC)OC(=O)CCCC(=O)OCC(COC(=O)CCCC(=O)OC(CCCCCCCC)CCCCCCCC)COC(=O)OCCCN1CCCCC1` [Compound 32, di(heptadecan-9-yl) O,O′-(2-((((3-(piperidin-1-yl)propoxy)carbonyl)oxy)methyl)propane-1,3-diyl) diglutarate] gave a Mean % editing [1] of 1.2%.

`CCCCCCCCC(CCCCCCCC)OC(=O)CCCC(=O)OCC(COC(=O)CCCC(=O)OC(CCCCCCCC)CCCCCCCC)COC(=O)OCCCN1CCCC1` [Compound 33, di(heptadecan-9-yl) O,O′-(2-((((3-(pyrrolidin-1-yl)propoxy)carbonyl)oxy)methyl)propane-1,3-diyl) diglutarate] was tested, and the Mean % editing [1] was 20.0% and the “Mean % editing in rat liver” value was 12.2%.

For `CCCCCCCCC(CCCCCCCC)OC(=O)CCCC(=O)OCC(COC(=O)CCCC(=O)OC(CCCCCCCC)CCCCCCCC)COC(=O)CCCN(C)C` [Compound 34, O,O′-(2-(((4-(dimethylamino)butanoyl)oxy)methyl)propane-1,3-diyl) di(heptadecan-9-yl) diglutarate], the Mean % editing [2] was 14.9%.

`CCCCCCCCC(CCCCCCCC)OC(=O)CCCC(=O)OCC(COC(=O)CCCC(=O)OC(CCCCCCCC)CCCCCCCC)OC(=O)NCCN(CC)CC` [Compound 35, O,O′-(2-(((2-(diethylamino)ethyl)carbamoyl)oxy)propane-1,3-diyl) di(heptadecan-9-yl) diglutarate] was tested, and the Mean % editing [2] was 10.3%.

With `CCCCCCCCC(CCCCCCCC)OC(=O)CCCC(=O)OCC(C)(COC(=O)CCCC(=O)OC(CCCCCCCC)CCCCCCCC)COC(=O)NCCN(CC)CC` [Compound 36, O,O′-(2-((((2-(diethylamino)ethyl)carbamoyl)oxy)methyl)-2-methylpropane-1,3-diyl) di(heptadecan-9-yl) diglutarate] the Mean % editing [1] was 27.4%.

`CCCCCCC(CCCCCC)OC(=O)CCCC(=O)OCC(COC(=O)CCCC(=O)OC(CCCCCC)CCCCCC)COC(=O)NCCN(CC)CC` [Compound 37, O,O′-(2-((((2-(diethylamino)ethyl)carbamoyl)oxy)methyl)propane-1,3-diyl) di(tridecan-7-yl) diglutarate] was tested, and the Mean % editing [1] was 38.1%.

`CCCCCCCCC(CCCCCCCC)C(=O)OCC(COC(=O)NCCN(CC)CC)COC(=O)C(CCCCCCCC)CCCCCCCC` [Compound 40, 2-((((2-(diethylamino)ethyl)carbamoyl)oxy)methyl)propane-1,3-diyl bis(2-octyldecanoate)] showed a Mean % editing [2] of 1.0%.

`CCCCCCCCCCCC(=O)OCC(COC(=O)CCC(OCCCCCCCC)OCCCCCCCC)COC(=O)OCCCN(CC)CC` (stereo not shown) [Compound 41, 3-((4,4-bis(octyloxy)butanoyl)oxy)-2-((((3-(diethylamino)propoxy)carbonyl)oxy)methyl)propyl Dodecanoate] was tested, and the Mean % editing [3] was 5.8%.

`CCCCCCCCOC(CCC(=O)OCC(COC(=O)CC(CCCC)CCCCCC)COC(=O)OCCCN(CC)CC)OCCCCCCCC` (stereo not shown) [Compound 43, 3-((4,4-bis(octyloxy)butanoyl)oxy)-2-((((3-(diethylamino)propoxy)carbonyl)oxy)methyl)propyl 3-butylnonanoate] was tested, and the Mean % editing [3] was 57.5%.

Molecule `CCCCCCCCOC(CCC(=O)OCC(COC(=O)NCCN(CC)CC)COC(=O)C(CCCC)CCCCCC)OCCCCCCCC` (stereo not shown) [Compound 48, 3-((4,4-bis(octyloxy)butanoyl)oxy)-2-((((2-(diethylamino)ethyl)carbamoyl)oxy)methyl)propyl 2-butyloctanoate] has a Mean % editing [3] of 55.0%.

`CCCCC/C=C\C/C=C\CCCCCCCC(=O)OCC(COC(=O)CCCC(=O)OC(CCCCCCCC)CCCCCCCC)COC(=O)N(C)CCN(CC)CC` (stereo not shown) [Compound 49, 3-(((2-(diethylamino)ethyl)(methyl)carbamoyl)oxy)-2-((((9Z,12Z)-octadeca-9,12-dienoyl)oxy)methyl)propyl heptadecan-9-yl Glutarate] gave a Mean % editing [4] of 47.1%.

Molecule `CCCCC/C=C\C/C=C\CCCCCCCC(=O)OCC(COC(=O)CCCC(=O)OC(CCCCCCCC)CCCCCCCC)COC(=O)NCCN1CCCCCC1` (stereo not shown) [Compound 50, 3-(((2-(azepan-1-yl)ethyl)carbamoyl)oxy)-2-((((9Z,12Z)-octadeca-9,12-dienoyl)oxy)methyl)propyl heptadecan-9-yl Glutarate] has a Mean % editing [4] of 53.1%.

For `CCCCCCCCC(CCCCCCCC)OC(=O)CCCCCC(=O)OCC(CCCCCCCCC(=O)OCC(CCCC)CCCCCC)COC(=O)NCCN(CC)CC` (stereo not shown) [Compound 51, 1-(11-((2-butyloctyl)oxy)-2-((((2-(diethylamino)ethyl)carbamoyl)oxy)methyl)-11-oxoundecyl) 7-(heptadecan-9-yl) heptanedioate], the Mean % editing [5] was 60.0%.

For `CCCCCCCCC(CCCCCCCC)OC(=O)CCCCCCC(=O)OCC(COC(=O)CCCCCCC(=O)OC(CCCCCCCC)CCCCCCCC)COC(=O)NCCN(CC)CC` [Compound 52, O′1,O1-(2-((((2-(diethylamino)ethyl)carbamoyl)oxy)methyl)propane-1,3-diyl) 8,8′-di(heptadecan-9-yl) di(octanedioate)], the Mean % editing [6] was 9.0%, the “Mean % editing in rat liver” value was 11.9% and the Mean % editing (Table 8, 0.03 mpk, LNP with C13 Ether) was 7.0%.

`CCCCC/C=C\C/C=C\CCCCCCCC(=O)OCC(COC(=O)CCC(OCCCCCCCC)OCCCCCCCC)COC(=O)OCCCN(CC)CC` (stereo not shown) [Compound 53] was tested, and the Mean % editing [7] was 38.6%, the Mean % editing [8] was 55.2% and the Mean % editing [9] was 41.4%. It also gave a Mean % editing (Experiment 4, 0.1 mpk, LNP with PEG2K-DMG) of 41.8%, a Mean % editing (Experiment 5, 0.1 mpk, LNP with PEG2K-DMG) of 42.8% and a Mean % editing (Experiment 6, 0.1 mpk, LNP with PEG2K-DMG) of 47.1%. The Mean % editing [3] was 31.5%, the Mean % editing (Experiment 8, 0.1 mpk, LNP with PEG2K-DMG) was 47.8% and the Mean % editing (Experiment 9, 0.1 mpk, LNP with PEG2K-DMG) was 42.6%. The Mean % editing [4] was 44.2%, the Mean % editing [5] was 42.0% and the Mean % editing [6] was 8.5%. For the same molecule, the “Mean % editing in rat liver” value was 9.9%, the Mean % editing [10] was 7.5% and the Mean % editing [11] was 4.2%. The Mean % editing [12] was 9.6%.

Molecule `CCCCC/C=C\C/C=C\CCCCCCCC(=O)OCC(COC(=O)CCC(OCCCCCCCC)OCCCCCCCC)COC(=O)NCCN(CC)CC` (stereo not shown) [Compound 54] has a Mean % editing [7] of 36.9%.

For `CCCCCCCCCOC(=O)CCCCCCCN(CCO)CCCCCCCC(=O)OC(CCCCCCCC)CCCCCCCC` [Compound 55], the Mean % editing [5] was 13.2%.

`CCCCC/C=C\C/C=C\CCCCCCCC(=O)OCC(COC(=O)CCCC(=O)OC(CCCCCCCC)CCCCCCCC)COC(=O)OCCCN(CC)CC` (stereo not shown) [Compound 56] gave a Mean % editing [8] of 50.9% and a Mean % editing [4] of 53.0%.

`CCCCC/C=C\C/C=C\CCCCCCCC(=O)OCC(COC(=O)CCCCCC(=O)OC(CCCCCCCC)CCCCCCCC)COC(=O)OCCCN(CC)CC` (stereo not shown) [Compound 57] was tested, and the Mean % editing [8] was 46.7% and the Mean % editing [9] was 39.5%.

In the case of `CCCCC/C=C\C/C=C\CCCCCCCC(=O)OCC(COC(=O)CCCC(=O)OC(CCCCCCCC)CCCCCCCC)COC(=O)NCCN(CC)CC` (stereo not shown) [Compound 58], the Mean % editing [7] is reported as 44.7%, the Mean % editing [8] is reported as 60.4% and the Mean % editing [4] is reported as 56.5%.

In the case of `CCCCC/C=C\C/C=C\CCCCCCCC(=O)OCC(COC(=O)CCCCCC(=O)OC(CCCCCCCC)CCCCCCCC)COC(=O)NCCN(CC)CC` (stereo not shown) [Compound 59], the Mean % editing [7] is reported as 36.7% and the Mean % editing [8] is reported as 53.4%.

`CCCCCCCCC(CCCCCCCC)OC(=O)CCCCCCC(=O)OCC(COC(=O)CCCCCCC(=O)OC(CCCCCCCC)CCCCCCCC)COC(=O)OCCCN(CC)CC` [Compound 60] gave a Mean % editing [6] of 8.1%, a Mean % editing [10] of 10.1% and a Mean % editing [11] of 6.4%. It also gave a Mean % editing [12] of 12.0%.

`CCCCCCCCC(CCCCCCCC)OC(=O)CCCCCCC(=O)OCC(COC(=O)CCCCCCC(=O)OC(CCCCCCCC)CCCCCCCC)COC(=O)NCCCN(CC)CC` [Compound 61] showed a Mean % editing [6] of 0.2%.
